Laboratory results reported in ChEMBL document CHEMBL5634207, “Helical sulfonyl-γ-AApeptides for the inhibition of HIV-1 fusion and HIF-1α signaling” (RSC Med Chem, 2024).

What was measured:
[1] = target: Hypoxia-inducible factor 1-alpha (Homo sapiens, UniProt Q16665); experiment: Binding affinity to HIF-1alpha (unknown origin) assessed as dissociation constant
[2] = Cytotoxicity against human MT2 cells; type: toxicity, cell-based
[3] = tested on: Human immunodeficiency virus 1; experiment: Antiviral activity against HIV-1 IIIB infected in human MT2 cells incubated overnight by ELISA method; type: functional, organism-based; conditions: Human immunodeficiency virus 1, MT2

Hypoxia-inducible factor 1-alpha, sequence (Q16665 whole entry): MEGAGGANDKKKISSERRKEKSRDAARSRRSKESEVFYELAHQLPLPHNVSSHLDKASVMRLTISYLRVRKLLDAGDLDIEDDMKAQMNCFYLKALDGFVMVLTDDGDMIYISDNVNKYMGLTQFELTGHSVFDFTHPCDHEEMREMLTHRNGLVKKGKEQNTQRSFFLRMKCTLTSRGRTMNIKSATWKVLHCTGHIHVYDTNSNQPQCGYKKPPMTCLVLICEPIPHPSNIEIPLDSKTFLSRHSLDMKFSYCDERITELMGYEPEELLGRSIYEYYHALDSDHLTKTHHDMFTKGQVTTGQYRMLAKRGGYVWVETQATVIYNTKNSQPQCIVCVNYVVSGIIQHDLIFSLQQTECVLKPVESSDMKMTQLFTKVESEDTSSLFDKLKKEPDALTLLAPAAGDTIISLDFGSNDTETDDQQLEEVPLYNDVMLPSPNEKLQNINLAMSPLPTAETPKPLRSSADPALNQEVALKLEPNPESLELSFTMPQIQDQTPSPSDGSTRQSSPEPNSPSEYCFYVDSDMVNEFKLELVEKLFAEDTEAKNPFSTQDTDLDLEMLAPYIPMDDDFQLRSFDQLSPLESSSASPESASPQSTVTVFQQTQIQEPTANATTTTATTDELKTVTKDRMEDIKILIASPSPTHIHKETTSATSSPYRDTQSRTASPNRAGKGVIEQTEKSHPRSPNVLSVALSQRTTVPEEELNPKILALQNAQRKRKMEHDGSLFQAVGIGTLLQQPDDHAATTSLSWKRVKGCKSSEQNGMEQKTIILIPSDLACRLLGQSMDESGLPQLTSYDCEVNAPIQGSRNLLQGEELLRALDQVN

Molecule	Kd [1]	CC50 [2]	IC50 [3]
Ac-EELLRALDQV-OH	> 10000 nM		
CC(=O)N[C@@H](CC(C)C)CN(CC(=O)N[C@@H](CCC(=O)O)CN(CC(=O)N[C@@H](CC(C)C)CN(CC(=O)N[C@@H](CCCCN)CN(CC(=O)N[C@@H](CC(C)C)CN(CC(N)=O)S(=O)(=O)CCN)S(C)(=O)=O)S(C)(=O)=O)S(=O)(=O)CC(C)C)S(C)(=O)=O	97 nM		
CC(=O)N[C@@H](CCC(=O)O)C(=O)N[C@@H](CC(C)C)CN(CC(=O)N[C@@H](CC(C)C)CN(CC(=O)N[C@@H](CC(C)C)CN(CC(=O)N[C@@H](C)CN(CC(=O)N[C@@H](C)CN(CC(=O)N[C@@H](CCC(N)=O)C(N)=O)S(=O)(=O)CC(C)C)S(C)(=O)=O)S(=O)(=O)CC(C)C)S(=O)(=O)CCN)S(=O)(=O)CC(C)C	514 nM		
CC(=O)N[C@@H](CCC(=O)O)CN(CC(=O)N[C@@H](CC(C)C)CN(CC(=O)N[C@@H](C)CN(CC(=O)N[C@@H](CCC(=O)O)CN(CC(=O)N[C@@H](CC(C)C)CN(CC(N)=O)S(=O)(=O)CC(C)C)S(C)(=O)=O)S(=O)(=O)CC(C)C)S(=O)(=O)CCN)S(=O)(=O)CC(C)C	489 nM		
enfuvirtide		> 100 µM	36 nM
